Results on 23 compounds are retold here after US12157730B2, “Heteroaryl derivative, method for producing same, and pharmaceutical composition comprising same as effective component” (VORONOI INC., priority 2019, dated 2024).

The test deals with T1, Ba/F3 cell EGFR Exon20 ins NPH (Homo sapiens, UniProt P00533, INS773NPH).
T1 construct: expressed in transfected cells; host or cells: Ba/F3
Put plainly: Ba/F3 cell proliferation suppression, EGFR Exon20 ins NPH. The test is classed as cell-based. The settings on record: GI50 class; Ba/F3 cell line with NPH inserted at Exon20 of EGFR; 72 hours. The method, boiled down: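 After 72 h compound exposure (twelve 3-fold steps, 0.3 nM–50 um final), live cells were measured by CellTiter-Glo luminescence and growth expressed as % of control to derive GI50. Cells were seeded at 3000–5000 per well a day earlier; Ba/F3 medium contained IL-3; three repeats.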

Regarding “N-(2-(4-(4- (cyclopropylmethyl) piperazine-1-yl) piperidine-1-yl)-5-((6- ((S)-3-(2,6)- difluorophenyl) isoxazolidine-2-yl) pyrimidine-4-yl)amino)- 4-methoxyphenyl) acrylamide [Example 95]”, the “Ba/F3 (NPH) Activity” value is listed as “C (500 nM ≤ GI50 < 5000 nM)”.
Next, `C=CC(=O)Nc1cc(Nc2cc(N3OCC[C@@H]3c3ccc(Cl)c(Cl)c3)ncn2)c(OC)cc1N1CCC(N2CCN(C3COC3)CC2)CC1` [compound 931, N-(5-((6-((R)-3-(3,4-dichlorophenyl)isoxazolidine-2-yl)pyrimidine-4-yl)amino)-4-methoxy-2-(4-(4-(oxetane-3-yl)piperazine-1-yl)piperidine-1-yl)phenyl) acrylamide]: “A (GI50 < 50 nM)”.
Take `C=CC(=O)Nc1cc(Nc2cc(N3OCC[C@@H]3Cc3ccccc3)ncn2)c(OC)cc1N1C[C@H]2C[C@@H]1CO2` [compound 957, N-(5-((6-((S)-3-benzylisoxazolidine-2-yl)pyrimidine-4-yl)amino)-2-((1R,4R)-2-oxa-5-azabicyclo [2.2.1]heptane-5-yl)-4-methoxyphenyl) acrylamide]: the “Ba/F3 (NPH) Activity” value is recorded as “A (GI50 < 50 nM)”.
Next, `C=CC(=O)Nc1cc(Nc2cc(N3OCC[C@@H]3c3ccc(F)c(Cl)c3)ncn2)c(OC)cc1N1CCC(N2CCO[C@@H](C)C2)CC1` [compound 873, N-(5-((6-((R)-3-(3-chloro-4-fluorophenyl)isoxazolidine-2-yl)pyrimidine-4-yl)amino)-4-methoxy-2-(4-((S)-2-methylmorpholino)piperidine-1-yl)phenyl) acrylamide]: “A (GI50 < 50 nM)”; `C=CC(=O)Nc1cc(Nc2cc(N3OCC[C@H]3c3cc(F)cc(F)c3)ncn2)c(OC)cc1N1CCC(N2CCN(C3CC3)CC2)CC1` [Example 118]: “C (500 nM ≤ GI50 < 5000 nM)”; `C=CC(=O)Nc1cc(Nc2cc(N3OCC[C@@H]3c3cc(F)ccc3F)ncn2)c(OC)cc1N1CCC(N2CCOCC2)CC1` [compound 766, N-(5-((6-((R)-3-(2,5-difluorophenyl)isoxazolidine-2-yl)pyrimidine-4-yl)amino)-4-methoxy-2-(4-morpholinopiperidine-1-yl)phenyl)acrylamide]: “A (GI50 < 50 nM)”.
Next, `C=CC(=O)Nc1cc(Nc2cc(N3OCC[C@@H]3c3cccc(C#N)c3)ncn2)c(OC)cc1N1CCC(N2CCN(CCC)CC2)CC1` [compound 432, N-(5-((6-((R)-3-(3-cyanophenyl)isoxazolidine-2-yl)pyrimidine-4-yl)amino)-4-methoxy-2-(4-(4-propylpiperazine-1-yl)piperidine-1-yl)phenyl) acrylamide]: “A (GI50 < 50 nM)”; `C=CC(=O)Nc1cc(Nc2cc(N3OCC[C@@H]3c3cccc(C(F)(F)F)c3)ncn2)c(OC)cc1N1CCN(CC)CC1` [compound 452, N-(2-(4-ethylpiperazine-1-yl)-4-methoxy-5-((6-((R)-3-(3-(trifluoromethyl)phenyl)isoxazolidine-2-yl)pyrimidine-4-yl)amino)phenyl) acrylamide]: “A (GI50 < 50 nM)”; `C=CC(=O)Nc1cc(Nc2cc(N3OCC[C@@H]3c3ccc(F)c(F)c3)ncn2)c(OC)cc1N1CCC(N2CCN(C)CC2)CC1` [compound 502, N-(5-((6-((R)-3-(3,4-difluorophenyl)isoxazolidine-2-yl)pyrimidine-4-yl)amino)-4-methoxy-2-(4-(4-methylpiperazine-1-yl)piperidine-1-yl)phenyl) acrylamide]: “A (GI50 < 50 nM)”.
With `C=CC(=O)Nc1cc(Nc2cc(N3OCC[C@H]3c3c(F)cccc3F)ncn2)c(OC)cc1N1CCC(N2CCN(C)CC2)CC1` [compound 896, N-(5-((6-((S)-3-(2,6-difluorophenyl)isoxazolidine-2-yl)pyrimidine-4-yl)amino)-4-methoxy-2-(4-(4-methylpiperazine-1-yl)piperidine-1-yl)phenyl)acrylamide] the entry was “C (500 nM ≤ GI50 < 5000 nM)”; with `C=CC(=O)Nc1cc(Nc2cc(N3OCC[C@@H]3c3ccc(F)c(Cl)c3)ncn2)c(OC)cc1N1CCN(C2CC2)CC1` [compound 725, N-(5-((6-((R)-3-(3-chloro-4-fluorophenyl)isoxazolidine-2-yl)pyrimidine-4-yl)amino)-2-(4-cyclopropylpiperazine-1-yl)-4-methoxyphenyl) acrylamide], “A (GI50 < 50 nM)”; with `C=CC(=O)Nc1cc(Nc2cc(N3OCC[C@@H]3Cc3cccc(Cl)c3OC)ncn2)c(OC)cc1N1CCC(N2C[C@H]3C[C@@H]2CO3)CC1` [compound 1055, N-(2-(4-((1R,4R)-2-oxa-5-azabicyclo [2.2.1]heptane-5-yl)piperidine-1-yl)-5-((6-((S)-3-(3-chloro-2-methoxybenzyl)isoxazolidine-2-yl)pyrimidine-4-yl)amino)-4-methoxyphenyl) acrylamide], “A (GI50 < 50 nM)”.
For the compound `C=CC(=O)Nc1cc(Nc2cc(N3OCC[C@H]3Cc3cccnc3)ncn2)c(OC)cc1N1CCC(N2C[C@@H]3C[C@H]2CO3)CC1` [compound 989, N-(2-(4-((1S,4S)-2-oxa-5-azabicyclo [2.2.1]heptane-5-yl)piperidine-1-yl)-4-methoxy-5-((6-((R)-3-(pyridine-3-ylmethyl)isoxazolidine-2-yl)pyrimidine-4-yl)amino)phenyl)acrylamide], the “Ba/F3 (NPH) Activity” value is “B (50 nM ≤ GI50 < 500 nM)”.
Next, `C=CC(=O)Nc1cc(Nc2cc(N3OCC[C@@H]3c3cccc4ccccc34)ncn2)c(OC)cc1N1CCC(N(C)C)CC1` [compound 442, N-(2-(4-methoxy-5-((6-(dimethylamino)piperidine-1-yl)-4-((R)-3-(naphthalene-1-yl)isoxazolidine-2-yl)pyrimidine-4-yl)amino)phenyl) acrylamide]: “A (GI50 < 50 nM)”; `C=CC(=O)Nc1cc(Nc2cc(N3OCC[C@@H]3c3cc(F)cc(F)c3)ncn2)c(OC)cc1N1CCC(N2CCN3CCCC3C2)CC1` (stereo partly drawn) [compound 852, N-(5-((6-((R)-3-(3,5-difluorophenyl)isoxazolidine-2-yl)pyrimidine-4-yl)amino)-2-(4-(hexahydropyrrolo [1,2-a]pyrazine-2(1H)-yl)piperidine-1-yl)-4-methoxyphenyl) acrylamide]: “A (GI50 < 50 nM)”; `C=CC(=O)Nc1cc(Nc2cc(N3OCC[C@@H]3c3ccc(F)cc3)ncn2)c(OC)cc1N(C)CCN(C)C` [Example 39, N-(2-((2-(dimethylamino)ethyl)(methyl)amino)-5-((6-((R)-3-(4-fluorophenyl)isoxazolidine-2-yl)pyrimidine-4-yl)amino)-4-methoxyphenyl) acrylamide]: “A (GI50 < 50 nM)”.
Next, `C=CC(=O)Nc1cc(Nc2cc(N3OCC[C@@H]3Cc3ccccc3)ncn2)c(OC)cc1N1CCN(C2CCN(C)CC2)CC1` [compound 970, N-(5-((6-((S)-3-benzylisoxazolidine-2-yl)pyrimidine-4-yl)amino)-4-methoxy-2-(4-(1-methylpiperidine-4-yl)piperazine-1-yl)phenyl)acrylamide]: “A (GI50 < 50 nM)”.
As to `C=CC(=O)Nc1cc(Nc2cc(N3OCC[C@@H]3c3cc(F)cc(Cl)c3)ncn2)c(OC)cc1N1CCC(N2CCN(C3CCC3)CC2)CC1` [Example 189, N-(5-((6-((R)-3-(3-chloro-5-fluorophenyl)isoxazolidine-2-yl)pyrimidine-4-yl)amino)-2-(4-(4-cyclobutylpiperazine-1-yl)piperidine-1-yl)-4-methoxyphenyl) acrylamide], the “Ba/F3 (NPH) Activity” value is “A (GI50 < 50 nM)”.
Next, `C=CC(=O)Nc1cc(Nc2cc(N3OCC[C@@H]3Cc3ccccc3)ncn2)c(OC)cc1N1C[C@@H]2C[C@H]1CO2` [compound 962, N-(5-((6-((S)-3-benzylisoxazolidine-2-yl)pyrimidine-4-yl)amino)-2-((1S,4S)-2-oxa-5-azabicyclo [2.2.1]heptane-5-yl)-4-methoxyphenyl) acrylamide]: “A (GI50 < 50 nM)”.
Next, `C=CC(=O)Nc1cc(Nc2cc(N3OCC[C@@H]3c3cccc4ccccc34)ncn2)c(OC)cc1N1CCC(N2CCN(C3COC3)CC2)CC1` [Example 198, N-(4-methoxy-5-((6-((R)-3-(naphthalene-1-yl)isoxazolidine-2-yl)pyrimidine-4-yl)amino)-2-(4-(4-(oxetane-3-yl)piperazine-1-yl)piperidine-1-yl)phenyl)acrylamide]: “A (GI50 < 50 nM)”; `C=CC(=O)Nc1cc(Nc2cc(N3OCC[C@@H]3c3ccccc3)ncn2)c(OC)cc1N1CCC(N(C)CCN(C)C)CC1` [compound 735, N-(2-(4-((2-(dimethylamino)ethyl) (methyl)amino)piperidine-1-yl)-4-methoxy-5-((6-((R)-3-phenylisoxazolidine-2-yl)pyrimidine-4-yl)amino)phenyl) acrylamide]: “A (GI50 < 50 nM)”.
With `C=CC(=O)Nc1cc(Nc2cc(N3OCC[C@@H]3c3ccc(F)c(Cl)c3)ncn2)c(OC)cc1N1CCN(C(C)C)CC1` [compound 724, N-(5-((6-((R)-3-(3-chloro-4-fluorophenyl)isoxazolidine-2-yl)pyrimidine-4-yl)amino)-2-(4-isopropylpiperazine-1-yl)-4-methoxyphenyl) acrylamide] the entry was “A (GI50 < 50 nM)”; with `C=CC(=O)Nc1cc(Nc2cc(N3OCC[C@@H]3c3cccc(Cl)c3F)ncn2)c(OC)cc1N1CCC(N2CCN(C3CCCC3)CC2)CC1` [Example 101, N-(5-((6-((R)-3-(3-chloro-2-fluorophenyl)isoxazolidine-2-yl)pyrimidine-4-yl)amino)-2-(4-(4-cyclopentylpiperazine-1-yl)piperidine-1-yl)-4-methoxyphenyl) acrylamide], “A (GI50 < 50 nM)”.
